This is an account of results in patent US20090143468A1, “PET FOOD COMPOSITIONS AND METHODS” (priority 2004, published 2009).

For test [1], the system named is osteoblast cell line MC3T3-E1. In words: Fatty acid compositional analysis of osteoblasts. Type of test: cell-based. How it is done: (§1) Experiments are conducted to determine how SDA treatment of osteoblast-like cells in culture influence the polyunsaturated fatty acid (PUFA) composition. The osteoblast cell line MC3T3-E1 is cultured in growth medium (GM) consisting of DMEM supplemented with 10% fetal bovine serum (FBS), ascorbic acid, β-glycerol-phosphate, and 1% antimicrobial solution. The cells are plated in 24-well plates at a density of 1.2×10^4 cells per ml for 3 days until confluent. Once confluent, corresponding to the initialization of the osteoblastic phenotype, the medium is either changed for SDA or […] (LNA) treatment or cultured further in GM until subjected to the various treatments. At the end of the 3 day fatty acid treatment period, cultures are exposed to agents that induce COX-2 expression. The two agents utilized are forskolin (FSK) and interleukin-1 (IL-1). These agents are selected on the basis of their respective actions on the COX-2 gene. Forskolin, an activator of adenylate cyclase, increases cyclic-AMP (cAMP) concentrations. Interleukin-1, itself a bone resorption agent binding to its receptor on the cellular membrane, launches a cascade resulting in the activation of the transcription factor nuclear-factor κ-B (NFκB). Cyclic-AMP and NFκB both activate the expression of the COX-2 gene. Cyclic-AMP activates the expression of the COX-2 gene via the cAMP-response element binding protein (CREBP), which binds to the cAMP response element (CRE) in the COX-2 promoter. The COX-2 promoter also contains an NFκB binding element.
Fatty Acid Compositional Analysis of Osteoblasts. Osteoblast cells exposed to the PUFA treatments (SDA and LNA) are subjected to a gas chromotographic analysis of the FAME from extracted lipids of washed cells.

Test [2] relates to PGE2 production in osteoblasts. In words: PGE2 formation in osteoblasts (enzyme immunoassay). The class given is cell-based. How it is done: as §1, with “Interleukin-1, itself a bone resorption agent binding to its receptor on the cellular membrane, launches a cascade resulting in the activation of the transcription factor nuclear-factor κ-B (NFκB). Cyclic-AMP and NFκB both activate the expression of the COX-2 gene. Cyclic-AMP activates the expression of the COX-2 gene via the cAMP-response element binding protein (CREBP), which binds to the cAMP response element (CRE) in the COX-2 promoter. The COX-2 promoter also contains an NFκB binding element.” left out
Western Blot. […] Optical density is determined using Optimus image analyzing software (version 6.1). […]
PGE2 Formation. In the experiments, already detailed in the section on Western blotting, PGE2 levels in the medium of induced and non-induced cells are determined using an enzyme immunoassay kit (Cayman Chemical, Ann Arbor, Mich.).

For a further test, the system named is other cell cultures. In words: Omega-3 fatty acid concentrations in other cell cultures. The class given is cell-based. The following applies: compared with linolenic acid (18:3n-3).
A short description of test [3]: Beagle feeding study, diets supplemented with SDA or linolenic acid. The class given is in vivo, beagles. Conditions: dogs, low essential fatty acid diet 90 days. The source says:
Experiments are also designed to evaluate the effect of SDA on the pet, such as a dog or cat. As an example, beagles are provided with a low essential fatty acid diet for a period of 90 days. Diets supplemented with SDA or linolenic acid are provided for the subsequent 30 days.

Test [4] relates to Alkaline phosphatase (ALP) activity in osteoblast cells MC3T3-E1. Kind of test: Alkaline phosphatase (ALP) activity, method of Lowry. The class given is cell-based. The following applies: all time points evaluated; relative to linolenic acid. How it is done: as §1, with “Cyclic-AMP activates the expression of the COX-2 gene via the cAMP-response element binding protein (CREBP), which binds to the cAMP response element (CRE) in the COX-2 promoter. The COX-2 promoter also contains an NFκB binding element.” left out
Enzyme activity: Alkaline phosphatase (ALP) activity is determined by the method of Lowry.

[5] abbreviates: then supplemented diet 30 days, compared to linolenic acid diet.

Take `CC/C=C\C/C=C\C/C=C\C/C=C\CCCCC(=O)O` [SDA, 6Z, 9Z, 12Z, 15Z-octadecatetraenoic acid]: the “concentrations of total omega-3 fatty acid in osteoblasts” value in test [1] (SDA at increasing treatment levels) is “increased concentrations”. Moreover, in test [1] (SDA treatment of osteoblasts), the “22:5n-3 in osteoblasts” value is reported as “particularly elevates” and the EPA in osteoblasts entry was “particularly elevates”. In test [2], the “PGE2 production in osteoblasts” value was “attenuate PGE2 production”. Further, in the test with other cell cultures, the “altering the concentrations of omega-3 fatty acid” value is recorded as “more effective”. Also, in test [3] (then SDA supplemented diet 30 days), the “arachidonic acid in plasma and liver” value is given as “trend of decreased arachidonic acid”. Further, in test [3] (setting [5]), the “concentrations of 22:5n-3 in red blood cell membranes, plasma, and liver tissue” value was “elevated concentrations”; the “concentrations of EPA in red blood cell membranes, plasma, and liver tissue” value was “elevated concentrations”. In addition, the “activity of alkaline phosphatase” value in test [4] is on record as “highest activity”.
